Data reported in article PMC11943913, “Peptides from Harpadon nehereus Bone Ameliorate Sodium Palmitate-Induced HepG2 Lipotoxicity by Regulating Oxidative Stress and Lipid Metabolism” (Marine Drugs, 2025).
“Also recorded” adds a separate entry of the source.

Key:
HepG2 cells [1] = assay: CCK-8 proliferation of HepG2 with PANa; type: cell-based; conditions: 1000 μM PANa, 24 h, CCK-8, p < 0.0001, 100% at 0 μM PANa
Procedure: After incubation, different concentrations (250, 500, 750, 1000 μmol/L) of PANa were added and treated for 24 h. The cell proliferation rates were measured according to the CCK-8 assay instructions.

HepG2 cells [2] = assay: Observation of cell morphology; type: cell-based; conditions: 350 µM PANa 24 h, inverted microscope, 200×
Procedure: Cells grown in culture flasks underwent digestion to create a single-cell suspension that was then diluted with fresh medium before being transferred into six-well plates at a final concentration of 4 × 10^5/well (2 mL/well). Peptides at concentrations of 100 μM were introduced prior to adding PANa for a 4 h incubation. Following another 24 h culture period, cells were examined and photographed using an inverted microscope.

catalase (CAT) = assay: Catalase (CAT) activity in HepG2; type: cell-based
Procedure: (§1) After incubation, cells were treated with 100 μM of peptides for 4 h. After removing the media, PANa was added for 24 h of incubation. The levels of catalase (CAT), superoxide dismutase (SOD), glutathione peroxidase (GSH-Px), malondialdehyde (MDA), triacylglycerol (TG), total cholesterol (TCHO), low-density lipoprotein cholesterol (LDL-C), and high-density lipoprotein cholesterol (HDL-C) in the supernatant were determined according to the kit instructions.

[3] = test system: glutathione peroxidase (GSH-Px); assay: Glutathione peroxidase (GSH-Px) activity in HepG2; type: cell-based
Procedure: as §1

malondialdehyde (MDA) = assay: Malondialdehyde (MDA) level in HepG2; type: cell-based
Procedure: as §1

Nrf2 = assay: Western blot Nrf2; type: cell-based; conditions: HepG2, Western blot
Procedure: (§2) After treatment, cells were washed with pre-chilled PBS and lysed with ice-cold lysis buffer for 30 min. The supernatant was collected after centrifugation at 12,000× g for 10 min and stored at −80 °C. Protein concentration was determined using a BCA protein assay kit. Equal amounts of protein (20–40 µg) were subjected to 10% sodium dodecyl sulfate-polyacrylamide gel electrophoresis (SDS-PAGE) and transferred to PVDF membranes (Polyvinylidene Fluoride, Merck, Darmstadt, Germany). Non-specific binding sites were blocked with 5% bovine serum albumin (BSA) solution at room temperature for 1 h, followed by incubation with the primary antibody at 4 °C overnight. After washing with TBST (3 times, 10 min/time), the membrane was incubated with the secondary antibody at room temperature for 1 h. Following further washing with TBST (3 times, 10 min/time), antibody signals were detected using a Western blot development system. The dilution ratios for the internal reference protein, vascular endothelial injury-related proteins, and oxidative stress-related pathway proteins were prepared according to the manufacturer’s instructions.

HO-1 = assay: Western blot HO-1; type: cell-based; conditions: HepG2, Western blot
Procedure: as §2

NQO1 = assay: Western blot NQO1; type: cell-based; conditions: HepG2, Western blot
Procedure: as §2

HepG2 cells [4] = assay: Oil Red O staining (fat accumulation); type: cell-based; conditions: 200×
Procedure: After incubation, the supernatants were discarded, and 2 mL of Oil Red O stationary solution was added to each well for 20–30 min. The stationary solution was subsequently washed away with 60% isopropyl alcohol. A freshly prepared Oil Red O staining solution was then applied for immersion dyeing lasting 10–20 min. After removing the staining solution with water, a Mayer hematoxylin staining solution was added for counterstaining the nucleus for 1–2 min before being discarded. An Oil Red O buffer solution was applied for 1 min and then discarded. […] The emission wavelength of fluorescence detection was 600 nm.

triacylglycerol (TG) = assay: Triacylglycerol (TG) level in HepG2; type: cell-based
Procedure: as §1

total cholesterol (TCHO) = assay: Total cholesterol (TCHO) level in HepG2; type: cell-based
Procedure: as §1

[5] = test system: low-density lipoprotein cholesterol (LDL-C); assay: LDL-C level in HepG2; type: cell-based
Procedure: as §1

[6] = test system: high-density lipoprotein cholesterol (HDL-C); assay: HDL-C level in HepG2; type: cell-based
Procedure: as §1

[7] = test system: fatty acid synthase (FASN); assay: Western blot FASN; type: cell-based; conditions: HepG2, Western blot
Procedure: as §2

[8] = test system: phosphorylated ACC1 (p-ACC1); assay: Western blot p-ACC1; type: cell-based; conditions: HepG2, Western blot
Procedure: as §2

[9] = test system: Carnitine palmitoyl transferase 1 (CPT1); assay: Western blot CPT1; type: cell-based; conditions: HepG2, Western blot
Procedure: as §2

[10] = test system: adipose triglyceride lipase (ATGL); assay: Western blot ATGL; type: cell-based; conditions: HepG2, Western blot
Procedure: as §2

p-AMPKα = assay: Western blot p-AMPKα; type: cell-based; conditions: 350 µM PANa 24 h, HepG2, Western blot
Procedure: as §2

HepG2 cells [11] = assay: CCK-8 proliferation of HepG2 with peptide alone; type: cell-based; conditions: concentrations below 200 µM, 24 h, CCK-8, n = 3
Procedure: HepG2 cells were cultured in DMEM supplemented with penicillin at a concentration of 100 U/mL, streptomycin at 100 μg/mL, and fetal bovine serum at a volume ratio of 10% under conditions of 37 °C and 5% CO2. A total of 2 ×10^4 cells per well were seeded into a 96-well plate for overnight culture. The upper layer of medium was carefully aspirated, and 200 μL of different concentrations of oligopeptide solution (50 μM, 100 μM, 200 μM) prepared with cell complete medium was added to each well. Twenty-four hours later, the proliferation rate of the cells was measured according to the instructions of the CCK-8 kit, and the appropriate concentration of oligopeptide was screened out.

HepG2 cells [12] = assay: Cell viability of PANa-induced HepG2 (CCK-8); type: cell-based; conditions: 100 μM peptide 4 h, then 350 µM PANa 24 h, **** p < 0.0001 vs PANa group
Procedure: A total of 2 × 10^4 cells/well were inoculated in 96-well plates for culture at 37 °C and 5% CO2. Following this period, the cells received treatment with 200 μL medium containing 100 μM LR-7, KA-8, or PG-7 for 4 h before adding 350 μM PANa to each well. After incubation for an additional 24 h, the cell proliferation rates were assessed using the CCK-8 assay protocols.

[13] = test system: superoxide dismutase (SOD); assay: Superoxide dismutase (SOD) activity in HepG2; type: cell-based; conditions: 100 μM peptide 4 h, then 350 µM PANa 24 h
Procedure: as §1

HepG2 = assay: Lipid levels in HepG2 (TG, TCHO, LDL-C, HDL-C) overall; type: cell-based; conditions: 100 μM peptide 4 h, then 350 µM PANa 24 h
Procedure: as §1

[14] = test system: proteins associated with lipid metabolism; assay: Western blot, proteins associated with lipid metabolism overall; type: cell-based; conditions: 100 μM peptide 4 h, then 350 µM PANa 24 h, HepG2, Western blot
Procedure: as §2

pancreatic lipase = assay: Pancreatic lipase activity inhibition; type: biochemical; conditions: compared with orlistat (positive control); 4-nitrophenyl palmitate substrate, lipase 1.2 mg/mL, peptide 100 μM, Tris-HCl pH 8.0, 37 °C, absorbance 405 nm, three parallel wells
Procedure: A working substrate solution consisting of 4-nitrophenyl palmitate dissolved in sodium acetate solution (containing 1% Triton-X 100, 100 mL, 5 mM, pH 5.0) was prepared. Enzyme powder was dissolved in Tris-HCl buffer (pH 8.0, 37 °C). This mixture was incubated at 4 °C for 2 h before centrifugation at 5000 r/min for 5 min, yielding the supernatant used to prepare a pancreatic lipase solution of 1.2 mg/mL. Orlistat at a concentration of 1 mg/mL in Tris-HCl buffer (pH 8.0; 37 °C) was prepared alongside DMSO to reach a concentration of 350 μg/mL peptide solution. The peptide solution of 100 μM was prepared with Tris-HCl buffer (pH = 8.0, 37 °C). The absorbance was measured at 405 nm, and the inhibition rate was measured in parallel with three holes due to the methodology of Franco et al..

hypertensive mice = conditions: earlier work, ref [22]; cited from earlier work
Description: Harpadon nehereus, a nutrient-rich marine species indigenous to the Indo-Pacific region, remains underexploited despite its significant collagen content (18–22% wet weight). Harpadon nehereus serves as an economical source that is rich in protein and trace elements. Its proteins and derived peptides offer numerous health benefits including immune enhancement, blood pressure reduction, cardiovascular protection, and inflammation mitigation. In prior research, we successfully isolated three novel peptides LALFVPR (LR-7), KLHDEEVA (KA-8), and PSRILYG (PG-7) from the enzymatic hydrol ...

[15] = 350 µM PANa 24 h, HepG2, p < 0.001
[16] = 350 µM PANa 24 h, HepG2, p < 0.0001
[17] = 100 μM peptide 4 h, then 350 µM PANa 24 h, HepG2
[18] = 100 μM peptide 4 h, then 350 µM PANa 24 h, HepG2, p < 0.0001
[19] = 100 μM peptide 4 h, then 350 µM PANa 24 h
[20] = 100 μM peptide 4 h, then 350 µM PANa 24 h, vs PANa group, p < 0.0001
[21] = 100 μM peptide 4 h, then 350 µM PANa 24 h, vs PANa group

CCCCCCCCCCCCCCCC(=O)[O-].[Na+] [PANa, Sodium palmitate]
cell viability (HepG2 cells [1]): 33.3% | cell morphology, PANa group (HepG2 cells [2]): appeared loose, with a marked decrease in cell count and showed signs of apoptosis | decrease in CAT activity vs Con group (catalase (CAT); [15]): more than 20% | decrease in GSH-Px activity vs Con group [3, 15]: more than 20% | increase in MDA level vs Con group (malondialdehyde (MDA); [16]): 105% | Nrf2 protein expression, PANa vs Con group (Nrf2; 350 µM PANa 24 h): significant reduction | HO-1 protein expression, PANa vs Con group (HO-1; 350 µM PANa 24 h): significant reduction | NQO1 protein expression, PANa vs Con group (NQO1; 350 µM PANa 24 h): significant reduction | fat droplet formation and accumulation, PANa vs Con group (HepG2 cells [4]; 350 µM PANa 24 h): evident rise in fat droplet formation and accumulation | increase in TG level vs Con group (triacylglycerol (TG); [16]): 124.1% | increase in TCHO level vs Con group (total cholesterol (TCHO); [16]): 48.4% | increase in LDL-C level vs Con group [5, 16]: 58.3% | decrease in HDL-C level vs Con group [6, 15]: 51.7% | FASN expression, PANa vs Con group ([7]; 350 µM PANa 24 h): notable increase in FASN expression | p-ACC1 level, PANa vs Con group ([8]; 350 µM PANa 24 h, p < 0.01): significantly reduced | CPT1 expression, PANa vs Con group ([9]; 350 µM PANa 24 h, p < 0.05): markedly diminished | ATGL expression, PANa vs Con group ([10]; 350 µM PANa 24 h, p < 0.05): markedly diminished | phosphorylation of AMPKα, PANa group (p-AMPKα): attenuate the phosphorylation of AMPKα

LALFVPR [LR-7, peptide from Harpadon nehereus bone collagen enzymatic hydrolysates]
effect on apoptosis of HepG2 cells (HepG2 cells [11]): no effect on the apoptosis of HepG2 cells | cell viability of PANa-exposed HepG2 (HepG2 cells [12]): notably enhanced the cell viability | CAT activity, reversal of PANa-induced reduction (catalase (CAT); [17]): effectively reversed the reduction | increase in CAT activity vs PANa group (catalase (CAT); [18]): over 100% | SOD activity, reversal of PANa-induced reduction [13]: effectively reversed the reduction | GSH-Px activity, reversal of PANa-induced reduction [3, 17]: effectively reversed the reduction | increase in GSH-Px activity vs PANa group [3, 18]: over 100% | MDA level (malondialdehyde (MDA); [17]): decreased to values similar to those observed in the Con group; also recorded: significantly decreased the MDA levels | Nrf2 protein level (Nrf2; [19]): significant increases in the levels | HO-1 protein level (HO-1; [19]): significant increases in the levels | increase in HO-1 level (HO-1; [20]): 131.7% | NQO1 protein level (NQO1; [19]): significant increases in the levels | increase in NQO1 level (NQO1; [20]): 120% | fat accumulation relative to PANa group (HepG2 cells [4]; [19]): most significant reduction in fat accumulation | TG, effect on PANa-induced increase (triacylglycerol (TG); [17]): notably reversed the PANa-induced increases | TCHO, effect on PANa-induced increase (total cholesterol (TCHO); [17]): notably reversed the PANa-induced increases | LDL-C, effect on PANa-induced increase [5, 17]: notably reversed the PANa-induced increases | HDL-C, effect on PANa-induced decrease [6, 17]: notably reversed | lipid-lowering impact, ranking among the three peptides (HepG2): the most effective lipid-lowering impact | FASN expression vs PANa group [7, 19]: FASN expression decreased | reduction in FASN level [7, 21]: 59.6% | p-ACC1 level vs PANa group [8, 19]: p-ACC1 levels increased significantly | enhancement of p-ACC1 [8, 21]: 293.7% | enhancement of CPT1 level [9, 20]: 134.7% | enhancement of ATGL level [10, 20]: 148.1% | abnormal expression of proteins associated with lipid metabolism by PANa (FASN, ATGL, CPT1, p-AMPKα) [14]: significantly reversed | inhibition of pancreatic lipase activity (pancreatic lipase): superior inhibitory effects compared with orlistat | protection against cardiovascular injuries in hypertensive mice (hypertensive mice): protective qualities against cardiovascular injuries in hypertensive mice
